This passage reports Ki and Activity results from ChEMBL document CHEMBL4043081, “Do spiroindolines have the potential to replace vesamicol as lead compound for the development of radioligands targeting the vesicular acetylcholine transporter?” (Bioorg Med Chem, 2017).

Molecules are shown by their SMILES. Calls of active or inactive are those of the source. The calls are words filed in the database; no cut-off is given here.

Assay [1] deals with Sigma non-opioid intracellular receptor 1 (Rattus norvegicus, UniProt Q9R0C9). As to the kind of experiment: Displacement of [3H]pentazocine from sigma1 receptor in Sprague-Dawley rat cortex membranes incubated for 120 mins by liquid scintillation counting. Type of assay: cell membranes. (Loss of bound radioactivity is the signal in a displacement assay; it reports binding, not function.)

Assay [2] addresses T1, Vesicular acetylcholine transporter (Rattus norvegicus, UniProt Q62666).
T1 sequence (Q62666 whole entry): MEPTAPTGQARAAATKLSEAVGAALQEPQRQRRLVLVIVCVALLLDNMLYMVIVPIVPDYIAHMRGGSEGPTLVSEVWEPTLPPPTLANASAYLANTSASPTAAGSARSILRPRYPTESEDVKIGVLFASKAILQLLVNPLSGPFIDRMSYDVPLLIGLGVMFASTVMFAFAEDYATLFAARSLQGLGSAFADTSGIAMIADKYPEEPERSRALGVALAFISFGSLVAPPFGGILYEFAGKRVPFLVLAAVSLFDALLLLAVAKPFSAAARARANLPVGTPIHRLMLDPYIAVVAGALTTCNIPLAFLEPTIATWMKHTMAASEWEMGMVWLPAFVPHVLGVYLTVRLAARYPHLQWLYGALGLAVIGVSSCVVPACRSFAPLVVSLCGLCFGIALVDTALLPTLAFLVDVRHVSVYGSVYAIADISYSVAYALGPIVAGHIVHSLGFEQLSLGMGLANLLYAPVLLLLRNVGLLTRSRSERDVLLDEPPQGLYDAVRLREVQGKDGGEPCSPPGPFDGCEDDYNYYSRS
Briefly: Displacement of [3H]vesamicol from rat VAChT expressed in rat PC12 cell membranes incubated for 120 mins by liquid scintillation counting.

Assay [3] deals with T2, Sigma intracellular receptor 2 (Rattus norvegicus, UniProt Q5U3Y7).
T2 sequence (Q5U3Y7 whole entry): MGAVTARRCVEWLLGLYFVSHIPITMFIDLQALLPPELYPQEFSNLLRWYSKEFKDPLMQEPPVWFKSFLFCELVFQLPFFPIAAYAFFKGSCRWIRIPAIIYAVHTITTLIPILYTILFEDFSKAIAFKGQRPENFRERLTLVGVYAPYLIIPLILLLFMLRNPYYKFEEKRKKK
As to the kind of experiment: Displacement of [3H]pentazocine from sigma2 receptor in Sprague-Dawley rat liver membranes incubated for 120 mins by liquid scintillation counting. The assay is classed as cell membranes, Membrane.

Assay [4] addresses T3, Vesicular acetylcholine transporter (Rattus norvegicus) (UniProt Q62666).
T3 sequence (whole entry): T1 sequence (Q62666 whole entry)
As to the kind of experiment: Binding affinity to rat VAChT expressed in rat PC12 cell membranes assessed as induction of rightward shift of vesamicol binding curves at 100 and 100 nM incubated for 120 mins by liquid scintillation counting based [3H]vesamicol binding assay.

Sequence of Sigma non-opioid intracellular receptor 1 (Q9R0C9 whole entry): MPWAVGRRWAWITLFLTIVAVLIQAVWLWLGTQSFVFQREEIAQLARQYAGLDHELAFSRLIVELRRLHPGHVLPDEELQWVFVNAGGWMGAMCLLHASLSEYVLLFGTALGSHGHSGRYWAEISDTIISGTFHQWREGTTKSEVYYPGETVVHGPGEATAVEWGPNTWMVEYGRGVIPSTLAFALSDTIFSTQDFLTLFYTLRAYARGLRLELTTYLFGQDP

In general, Ki refers to the equilibrium dissociation constant of an inhibitor or competing ligand from its target. For the compound `O=C(OCCF)N1CC2(CCN(C/C=C/c3ccc(Cl)cc3)CC2)c2cc(F)ccc21`, the values for the inhibition constant (Ki) in assay [1], in assay [2] and in assay [3] were 44.1 nM, 328 nM and 1520 nM, respectively.
As for `O=C(c1ccc(F)nc1)N1CC2(CCN(C/C=C/c3ccc(Cl)cc3)CC2)c2cc(F)ccc21`, the values for the Ki in assay [1], in assay [2] and in assay [3] were 282 nM, 376 nM and above 10000 nM, respectively.
With `O=C(c1ccc(Br)nc1)N1CC2(CCN(C/C=C/c3ccc(Cl)cc3)CC2)c2cc(F)ccc21`, the Ki was 179 nM in assay [1], 39.2 nM in assay [2] and 60.1 nM in assay [3].
For `O=C(c1ccc(F)cc1)N1CC2(CCN(C/C=C/c3ccc(Cl)cc3)CC2)c2cc(F)ccc21`, the Ki in assay [1] was determined as 293 nM; in assay [2], 243 nM; in assay [3], 1200 nM.
Turning to `O=C(c1ccnc(F)c1)N1CC2(CCN(C/C=C/c3ccc(Cl)cc3)CC2)c2cc(F)ccc21`, the figures for the inhibition constant (Ki) in assay [1], in assay [2] and in assay [3] were 55.4 nM, 110 nM and 748 nM, respectively.
As for `O=C(c1ccnc(Cl)c1)N1CC2(CCN(C/C=C/c3ccc(Cl)cc3)CC2)c2cc(F)ccc21`, the values for the Ki in assay [1], in assay [2] and in assay [3] were 137 nM, 153 nM and 1190 nM, respectively. Besides, the outcome in assay [4] was Active.
